Data reported in publication PMC3670040, “Structure of Lipid Kinase p110β/p85β Elucidates an Unusual SH2-Domain-Mediated Inhibitory Mechanism” (Molecular Cell, 2011).
Values belong to the compound of their own block, whether it stands above or below them.

Assays:
PKB = PKB phosphorylation in transfected HEK cells (Western blot); format: cell-based, human
Experimental: Figure 4 cSH2 Is Important for p110β Inhibition In Vitro and in Cells (A) Kinase activity of human p110β and icSH2 wild-type constructs from three human regulatory subunits (p85α, p85β, and p55γ) in the absence and presence of 10 μM PDGFR pY2 (y axis as in Figure 1B). EC50s for wild-type and icSH2 tyrosine mutants, in the absence and presence of 10 μM PDGF pY2, are shown. (B) Western blots of HEK cells transiently expressing wild-type and mutant human p110β/p85α. The membrane was probed with antibodies against PKB, pPKB (pSer473), myc (p110β), FLAG (p85α), and actin. Bar graphs show mean ± SEM (n = 3) of PKB phosphorylation level normalized to wild-type p110β/p85α (WT). The position of the three mutations is mapped on the p110β/p85β structure. TEXT PRINTED IN THE PICTURE: (A) p110β/p85α-ic: EC50 (nM): 3 | (A) p110β/p85α-ic+pY2: EC50 (nM): 0.3 | (A) p110β/p85β-ic: EC50 (nM): 1.2 | (A) p110β/p85β-ic+pY2: EC50 (nM): 0.3 | (A) p110β/p55γ-ic: EC50 (nM): 1.5 | (A) p110β/p55γ-ic+pY2: EC50 (nM): 0.3 | (A) p110β/p85α-ic-Y685A: EC50 (nM): 0.3 | (A) p110β/p85α-ic-Y685A+pY2: EC50 (nM): 0.3 | (A) p110β/p85β-ic-Y683A: EC50 (nM): 0.4 | (A) p110β/p85β-ic-Y683A+pY2: EC50 (nM): 0.3 | (A) p110β/p55γ-ic-Y419A: EC50 (nM): 0.2 | (A) p110β/p55γ-ic-Y419A+pY2: EC50 (nM): 0.2 […]
Figure S4, Related to Figure 4. Tyr-Mutation in cSH2 Activates PI3K Downstream […]
(A) Western blot of HEK cells over-expressing wild-type and mutant human p110β/p85α complexes. Protein kinase B (PKB) phosphorylation (pPKB) levels at residues Ser473 and Thr308 were quantified and normalized WT p110β/p85α (WT).
(B) Quantification of PtdIns(3,4,5)P3 levels in HEK cells over-expressing wild-type and mutant human p110β/p85α complexes. Phospholipids were extracted from cells and PtdIns(3,4,5)P3 and PtdIns(4,5)P2 levels were quantified by mass spectrometry.
PtdIns(3,4,5)P3 / […] for each construct for two separate experiments measured in duplicates. Error bars indicate SEM. […]
The PIP3 lipids produced in PI3K in vitro assays as described above were also measured by a mass-spectrometry based assay (Clark et al.). […]

p110β/p85β-nic = assay: ATPase activity (ADP formation) in the absence of lipid substrate, Transcreener; format: biochemical, mouse; details: absence of lipid substrate; 75 nM protein, 100 μM ATP; 5 μM GDC0941 or D913N mutation; Figure S3B
Experimental: (§1) Figure 1 Inhibition of p110β by p85-Type Regulatory Subunits and Activation of the Complexes by RTK Phosphopeptide (A) Domain organization of p110β and the regulatory subunits p85α, p85β, and p55γ. The color scheme for the domains is used for all figures, unless otherwise stated. […] The inhibition is released upon addition of the 10 μM PDGFR pY2. […] The y axis is expressed as a change in fluorescence polarization (ΔmP), which is obtained by subtracting the observed polarization for the construct at a given enzyme concentration from the maximum fluorescence polarization for that construct. The plateau in these assays arises due to the competitive nature of the ADP detection system, based on displacement of ADP-Alexa 633 tracer from the ADP^2-antibody by ADP generated during the PI3K assay (see Supplemental Experimental Procedures). All measurements were done in triplicates, and the error bars indicate the standard error of the mean (SEM). […]
The lipid kinase activity was determined using the Transcreener ADP2 FP Assay (BellBrook Labs, Madison, WI) according to manufacturer‟s specifications. This non-radioactive assay measures activity by quantitating the amount of ADP formed. The ADP formed by PI3K competes with fluorescent ADP tracer for binding to an anti-ADP antibody, thereby decreasing fluorescence polarization. […]

p110β = assay: Transcreener ADP formation (fluorescence polarization), diC8-PIP2/POPS liposomes, mouse p110β complexes; format: biochemical; details: absence of pY2; ADP formation; Figures 3A, 3B
Experimental: as §1
Figure 3 Mutation Y677A in p85β-cSH2 Releases Inhibitory Effect on p110β (A) Kinase activity (ADP formation) of p110β in a complex with p85β-icSH2-Y677A (Y677A-ic) compared to the wild-type complex (ic) in the absence and presence of 10 μM PDGFR pY2 (ADP formation on the y axis expressed as in Figure 1B). […]
The lipid kinase activity was determined using the Transcreener ADP2 FP Assay (BellBrook Labs, Madison, WI) according to manufacturer‟s specifications. This non-radioactive assay measures activity by quantitating the amount of ADP formed. The ADP formed by PI3K competes with fluorescent ADP tracer for binding to an anti-ADP antibody, thereby decreasing fluorescence polarization. Because of the competitive nature of this assay, the change in fluorescence polarization signal is not a linear function of enzyme activity, and a convenient measure of enzyme activity is the EC50, or the concentration of enzyme necessary to give half-maximal inhibition of labeled ADP binding to the antibody, for a given concentration of substrate and a fixed time of reaction at initial rate. […]

Compound: p85α-Y685A: full-length human p85α-Y685A cotransfected with human wild-type p110β
increase in PKB phosphorylation relative to wild-type heterodimer (PKB; HEK293T cells cotransfected with human p110β and p85α mutant, pSer473 mean n = 3, Figures 4B and S4A): 2 fold

inhibition of ATPase activity (p110β/p85β-nic): fully inhibited
Compound: CS(=O)(=O)N1CCN(Cc2cc3nc(-c4cccc5[nH]ncc45)nc(N4CCOCC4)c3s2)CC1 [GDC0941, 2-(1H-indazol-4-yl)-6-(4-methanesulfonyl-piperazin-1-ylmethyl)-4-morpholin-4-yl-thieno[3,2-d]pyrimidine]

Compound: p110β/p85α-N564D: heterodimer carrying somatic p85α mutation N564D
phosphorylation of PKB Ser473 (PKB; HEK cells, Figure 4B, n = 3): increase in phosphorylation | phosphorylation of PKB Thr308 (PKB; HEK cells, Figure S4A): increase in phosphorylation

Compound: nicSH2-Y677A: p110β complex with regulatory construct containing wild-type nSH2 but mutant cSH2-Y677A
basal activity versus wild-type complex (p110β): basal activity higher than the wild-type
